# Measured values taken from US20260284065A1, “PHARMACEUTICAL COMPOSITION FOR PREVENTION OR TREATMENT OF CANCER FOR OVERCOMING RESISTANCE TO IMMUNE CHECKPOINT INHIBITORS” (AJOU UNIVERSITY INDUSTRY-ACADEMIC COOPERATION FOUNDATION, priority 2023, published 2026).
# System: mouse gastric cancer cell line YTN16
# Assay: YTN16 syngeneic mouse model: subcutaneous tumor size and tumor weight
# Type: in vivo
# Protocol: The experiment was conducted by dividing the mice into a control group (Control), a group administered with Comparative Example 1 (Anti-PD-1), a group administered with Comparative Example 2 (CCB-3233), and a group administered with Example 1 (Anti-PD-1+CCB-3233), and eight mouse models were used for each group.
# Comparative Example 1 (Anti-PD-1) was diluted in 1×PBS at a concentration of 10 mg/kg and administered intraperitoneally to the mice, Comparative Example 2 (CCB-3233) was orally administered to the mice at a concentration of 50 mg/kg by dissolving 5% DMSO+5% CMC-NA in 1×PBS, and Example 1 (Anti-PD-1+CCB-3233) was diluted and prepared in different solvents as in Comparative Examples 1 and 2, and then administered sequentially.
compound,measurement,setting,value
COc1cc2c(Oc3ccc(Nc4nn(C)cc4C(=O)NC4CCCCC4)cc3F)ccnc2cc1OCCCN1CCOCC1 [Comparative Example 2],therapeutic effect of the immune checkpoint inhibitor,CCB-3233 administered together with the immune checkpoint inhibitor to YTN 16 syngeneic mice resistant to the immune checkpoint inhibitor,enhanced
same,tumor weight (FIG. 2),"YTN16 syngeneic mice, anti-PD-1 10 mg/kg intraperitoneally, CCB-3233 50 mg/kg orally, compared between groups",no significant difference in tumor weight from the control group
